Measured values from patent EP1599197B1, “THE USE OF ANTIMUSCARINIC DRUGS” (FAPESP-Fundacao de Amparo a Pesquisa do Estado de SP, priority 2003, dated 2004).

Tests used:
[1] = test system: Wistar, adult, male, rats; test: induction of status epilepticus by systemic pilocarpine; format: in vivo; conditions: pilocarpine 320 mg/Kg intraperitoneal, average
Excerpt: (§1) Biperiden, together with atropine, is a classic cholinergic antagonist and is known to block muscarinic receptors. These drugs are known by their abilities in blocking the cholinergic transmission which is otherwise mediated through muscarinic receptors. For our experiments we used Wistar, adult, male, rats which were maintained under controled conditions of temperature, light/dark cylces and kept in groups of up to 6 animals in polypropilene boxes with free access to tap water and rat chow pellets. Rats were subject to the intraperitoneal administration of pilocarpine in a dose of 320 mg/Kg for the induction of status epilepticus.
As expected, the systemic administration of pilocarpine lead to a sequence of behavioral alterations such as akinesia, body tremor and/or myoclonic jerks of the head and oro-facial stereotyped movements accompained by profuse salivation. Status epilepticus, a condition of uninterrupt epileptic seizure, developed on average 19 ± 5 min after the injetion of pilocarpine. Three hours after the onset of status epilepticus the animals in the experimental group (n=10) were intraperitoneally injected with the first initial dose of biperiden (8 mg/kg). […]

[2] = test system: Wistar, adult, male, rats; test: pilocarpine model of epilepsy: video monitoring of spontaneous epileptic seizures after status epilepticus; format: in vivo
Excerpt: The current invention was based on an experimental model of epilepsy in which in rats the induction of a brain lesion is accomplished through the administration of pilocarpine, a cholinergic agonist. According to the original description of this model, approximately 20-30 days after pilocarpine injection in either rats or mice, there is the onset of spontaneous recurrent epileptic seizures (Turski WA, Cavalheiro EA, Schwarz M, Czuczwar SJ, Kleinrok Z and Turski L. Limbic seizures produced by pilocarpine in rats: behavioural, electroencephalographic and neuropathological study. Behavioral Brain Research, 9:315-335, 1983; Mello LEAM, Cavalheiro EA, Babb TL, Kupfer WR, Pretorius JK, Tan AM and Finch. DM. Circuit mechanisms of seizures in the pilocarpine model of chronic epilepsy: cell loss and mossy fiber sprouting. Epilepsia 34:985-995, 1993). Due to its special features the pilocarpine model is currently one of the 3 most widely used experimental models in the study of epilepsy.
as §1
As expected, the systemic administration of pilocarpine lead to a sequence of behavioral alterations such as akinesia, body tremor and/or myoclonic jerks of the head and oro-facial stereotyped movements accompained by profuse salivation. Status epilepticus, a condition of uninterrupt epileptic seizure, developed on average 19 ± 5 min after the injetion of pilocarpine. Three hours after the onset of status epilepticus the animals in the experimental group (n=10) were intraperitoneally injected with the first initial dose of biperiden (8 mg/kg). This dose represents the concentration needed to provoke memory impairments in rodents (Roldan G, Bolanos-Badillo E, Gonzales-Sanches H, Quirarte GL and Prado-Alcala RA JW. Selective M1 muscarinic receptor antagonists disrupt memory consolidation of inhibitory avoidance in rats. Neurosci. Lett., 230:93-6, 1997).
For the animals in the control group (n=6), […] after the onset of status epileticus, administration of sterile saline solution (0.9% NaCl), rather than biperiden, was started with a similar protocol.
In the pilocarpine model of epilepsy, a few weeks after the administration of pilocarpine and the induction of status epilepticus, the animals develop spontaneous epileptic seizures which reccur for as long as the animal are allowed to live. […]
Approximately 15 to 20 days after the induction of status epilepticus, the reported duration of the latent period for the onset of spontaneous seizures, monitoring of the behavioral seizures with a videocamera for approximately 12 hours/week was initiated. […] Animals were video monitored for approximately 120 days after the induction of status epilepticus. The recorded video tapes were routinelly assessed in a 29 inches wide television screen and the seizures observed for each animal were recorded.

Row | Compound | time to development of status epilepticus after the injection of pilocarpine [1] [min] | qualitative or quantitative nature of each individual seizure, biperiden-treated vs control group ([2]; comparison between the two groups) | onset of spontaneous recurrent seizures after prophylactic use following pilocarpine lesion ([2]; prophylactic use after pilocarpine lesion, vs animals not treated with biperiden) | mean frequency of spontaneous epileptic seizures, control group relative to experimental group (treated with biperiden) ([2]; ratio control / biperiden-treated group, Table 2) [times higher] | Spontaneous seizures/h ([2]; rats, pilocarpine 320 mg/Kg i.p., biperiden 8 mg/kg i.p. every 8 hours for 10 days, n=10, video monitored about 120 days, mean ± standard deviation, p < 0.02 vs control (0.0401 ± 0.0113)) [seizures/h] | Latency (weeks): length of the latent period for the onset of the first recorded spontaneous epileptic seizure ([2]; rats, pilocarpine 320 mg/Kg i.p., biperiden 8 mg/kg i.p. starting 3 h after onset of status epilepticus, every 8 hours for 10 days, n=10, mean ± standard deviation, p < 0.03 vs control (3.2 ± 1.1)) [weeks]
1 | CC[C@@H]1C(=O)OC[C@@H]1Cc1cncn1C [pilocarpine] | 19 ± 5 |  |  |  |  | 
2 | OC(CCN1CCCCC1)(c1ccccc1)C1CC2C=CC1C2 (stereo not drawn) [biperiden] |  | no differences | significantly retarded or even supressed the onset of spontaneous recurrent seizures | 2 | 0.0202 ± 0.0047 | 6.0 ± 1.1
